Laboratory results as given in patent US6833389B2, “Use of thiamphenicol and derivatives thereof for the preparation of pharmaceutical compositions useful in the treatment of Chlamydia pneumoniae infections” (Zambon Group S.p.A., priority 2000, dated 2004).
In brackets after ≈: the same amount, converted by molar mass. Read-outs that look alike come from different tables or passages of the source.

How the values were obtained:
Chlamydia pneumoniae [1] = assay: MIC against Chlamydia pneumoniae strains in Hep-2 cell monolayers (inhibition of inclusion formation); type: cell-based
Description: Chlamydia pneumoniae TW183 and Chlamydia pneumoniae 2023 were obtained from American Type Culture Collection. The other strains (No. 9 isolated) were clinically isolated in the period 1997-1999. […] Monolayers of Hep-2 cells were prepared by seeding 2×10^5 cell/ml in EMEM with 10% fetal calf serum supplemented with L-glutammine, on 12 mm cover slips and left at 35° C., 5% CO2 for 24 to 48 hours for confluent growth. The growth medium was removed and Hep-2 monolayers were inoculated with the different strains at predetermined concentration calculated to give 3-5×10^2 inclusions for well. The monolayers, inoculated with Chlamydia pneumoniae were centrifuged at 1700 g for 60 minutes at 30° C. […] In positive control no antibiotic was added and negative control were considered wells not inoculated with Chlamydia pneumoniae. […] All tests were run in duplicate. The number of inclusions were counted and the MIC (the lowest concentration at which complete inhibition of inclusion formation was observed) was determined.

Chlamydia pneumoniae [2] = settings: background statement; cited from earlier work
[3] = Chlamydia pneumoniae, 72 h, MIC range over the 11 Chlamydia pneumoniae strains, Hep-2 cells, 3 days, read-out: MIC
[4] = Chlamydia pneumoniae, ATCC2023, strain ATCC 2023, test I, read-out: MIC
[5] = Chlamydia pneumoniae, strain 1 (clinical isolate), test I, read-out: MIC
[6] = Chlamydia pneumoniae, strain 2 (clinical isolate), test I, read-out: MIC
[7] = Chlamydia pneumoniae, strain 2 (clinical isolate), test II, read-out: MIC
[8] = Chlamydia pneumoniae, strain 3 (clinical isolate), test I, read-out: MIC
[9] = Chlamydia pneumoniae, strain 3 (clinical isolate), test II, read-out: MIC
[10] = Chlamydia pneumoniae, strain 4 (clinical isolate), test II, read-out: MIC
[11] = Chlamydia pneumoniae, strain 5 (clinical isolate), test I, read-out: MIC
[12] = Chlamydia pneumoniae, strain 5 (clinical isolate), test II, read-out: MIC

Compound | MIC (Chlamydia pneumoniae [1]; [3]) | activity in vitro against Chlamydia pneumoniae (Chlamydia pneumoniae [2]) | MIC (Chlamydia pneumoniae [1]; [4]) | MIC (Chlamydia pneumoniae [1]; [5]) | MIC (Chlamydia pneumoniae [1]; [6]) | MIC (Chlamydia pneumoniae [1]; [7]) | MIC (Chlamydia pneumoniae [1]; [8]) | MIC (Chlamydia pneumoniae [1]; [9]) | MIC (Chlamydia pneumoniae [1]; [10]) | MIC (Chlamydia pneumoniae [1]; [11]) | MIC (Chlamydia pneumoniae [1]; [12]) | other results
CC1(C)S[C@@H]2[C@H](NC(=O)[C@H](N)c3ccc(O)cc3)C(=O)N2[C@H]1C(=O)O [Amoxicillin, amoxicillin] | > 16 µg/mL | – | – | – | – | – | – | – | – | – | – | –
CC[C@H]1OC(=O)[C@H](C)[C@@H](O[C@H]2C[C@@](C)(OC)[C@@H](O)[C@H](C)O2)[C@H](C)[C@@H](O[C@@H]2O[C@H](C)C[C@H](N(C)C)[C@H]2O)[C@](C)(O)C[C@@H](C)CN(C)[C@H](C)[C@@H](O)[C@]1(C)O [Azithromycin, azithromycin] | 0.06 to 0.5 µg/mL (≈ 0.0801 to 0.668 µM) | active | 0.06 µg/mL (≈ 0.0801 µM) | 0.5 µg/mL (≈ 0.668 µM) | 0.06 µg/mL (≈ 0.0801 µM) | 0.25 µg/mL (≈ 0.334 µM) | 0.06 µg/mL (≈ 0.0801 µM) | 0.06 µg/mL (≈ 0.0801 µM) | 0.5 µg/mL (≈ 0.668 µM) | 0.25 µg/mL (≈ 0.334 µM) | 0.25 µg/mL (≈ 0.334 µM) | MIC (Chlamydia pneumoniae [1]; Chlamydia pneumoniae, strain 4 (clinical isolate), test I, read-out: MIC): 0.5 µg/mL (≈ 0.668 µM); MIC (Chlamydia pneumoniae [1]; Chlamydia pneumoniae, strain 6 (clinical isolate), test II, read-out: MIC): 0.25 µg/mL (≈ 0.334 µM); MIC (Chlamydia pneumoniae [1]; Chlamydia pneumoniae, strain 7 (clinical isolate), test I, read-out: MIC): 0.25 µg/mL (≈ 0.334 µM); MIC (Chlamydia pneumoniae [1]; Chlamydia pneumoniae, strain 7 (clinical isolate), test II, read-out: MIC): 0.25 µg/mL (≈ 0.334 µM); MIC (Chlamydia pneumoniae [1]; Chlamydia pneumoniae, strain 8 (clinical isolate), test I, read-out: MIC): 0.25 µg/mL (≈ 0.334 µM); MIC (Chlamydia pneumoniae [1]; Chlamydia pneumoniae, strain 8 (clinical isolate), test II, read-out: MIC): 0.25 µg/mL (≈ 0.334 µM); MIC (Chlamydia pneumoniae [1]; Chlamydia pneumoniae, strain 9 (clinical isolate), test I, read-out: MIC): 0.5 µg/mL (≈ 0.668 µM); MIC (Chlamydia pneumoniae [1]; Chlamydia pneumoniae, strain TW 183, test II, read-out: MIC): 0.25 µg/mL (≈ 0.334 µM)
CO/N=C(\C(=O)N[C@@H]1C(=O)N2C(C(=O)O)=C(CSc3nc(=O)c(=O)[nH]n3C)CS[C@H]12)c1csc(N)n1 [Ceftriaxone, ceftriaxone] | > 16 µg/mL | – | – | – | – | – | – | – | – | – | – | –
CC[C@H]1OC(=O)[C@H](C)[C@@H](O[C@H]2C[C@@](C)(OC)[C@@H](O)[C@H](C)O2)[C@H](C)[C@@H](O[C@@H]2O[C@H](C)C[C@H](N(C)C)[C@H]2O)[C@](C)(OC)C[C@@H](C)C(=O)[C@H](C)[C@@H](O)[C@]1(C)O [Clarithromycin, clarithromycin] | 0.03 to 0.25 µg/mL (≈ 0.0401 to 0.334 µM) | active | 0.03 µg/mL (≈ 0.0401 µM) | 0.03 µg/mL (≈ 0.0401 µM) | 0.25 µg/mL (≈ 0.334 µM) | 0.03 µg/mL (≈ 0.0401 µM) | 0.03 µg/mL (≈ 0.0401 µM) | 0.03 µg/mL (≈ 0.0401 µM) | 0.06 µg/mL (≈ 0.0802 µM) | 0.03 µg/mL (≈ 0.0401 µM) | 0.03 µg/mL (≈ 0.0401 µM) | MIC (Chlamydia pneumoniae [1]; Chlamydia pneumoniae): 0.125 µg/mL (≈ 0.167 µM); MIC (Chlamydia pneumoniae [1]; Chlamydia pneumoniae, ATCC2023, strain ATCC 2023, test II, read-out: MIC): 0.03 µg/mL (≈ 0.0401 µM); MIC (Chlamydia pneumoniae [1]; Chlamydia pneumoniae, strain 1 (clinical isolate), test II, read-out: MIC): 0.03 µg/mL (≈ 0.0401 µM); MIC (Chlamydia pneumoniae [1]; Chlamydia pneumoniae, strain 6 (clinical isolate), test I, read-out: MIC): 0.03 µg/mL (≈ 0.0401 µM); MIC (Chlamydia pneumoniae [1]; Chlamydia pneumoniae, strain 9 (clinical isolate), test II, read-out: MIC): 0.03 µg/mL (≈ 0.0401 µM); MIC (Chlamydia pneumoniae [1]; Chlamydia pneumoniae, strain TW 183, test I, read-out: MIC): 0.03 µg/mL (≈ 0.0401 µM); MIC (Chlamydia pneumoniae [1]; strain 4 (clinical isolate), test I): 0.125 µg/mL (≈ 0.167 µM); MIC (Chlamydia pneumoniae [1]; strain 7 (clinical isolate), test I): 0.125 µg/mL (≈ 0.167 µM); MIC (Chlamydia pneumoniae [1]; strain 7 (clinical isolate), test II): 0.125 µg/mL (≈ 0.167 µM); MIC (Chlamydia pneumoniae [1]; strain 8 (clinical isolate), test I): 0.125 µg/mL (≈ 0.167 µM); MIC (Chlamydia pneumoniae [1]; strain 8 (clinical isolate), test II): 0.125 µg/mL (≈ 0.167 µM); MIC (Chlamydia pneumoniae [1]; strain 9 (clinical isolate), test I): 0.125 µg/mL (≈ 0.167 µM); MIC (Chlamydia pneumoniae [1]; strain TW 183, test II): 0.125 µg/mL (≈ 0.167 µM)
